Source: patent publication US7846917B2, “18-Methyl-19-norandrost-4-ene 17, 17-spiro ether (18-methyl-19-nor-20-spirox-4-en-3-one), and pharmaceutical products comprising the same” (Bayer Schering Pharma AG, priority 2006, dated 2010)

Columns and labels:
progesterone receptor = target: T1, progesterone receptor (Oryctolagus cuniculus, UniProt P06186); test: progesterone receptor binding assay using cytosol from rabbit uterus homogenate; conditions: for PR [KF]: 3H-progesterone = 1; for PR [RBA]: 3H-progesterone = 100
T1 construct: cytosol from rabbit uterus homogenate; from tissue; host or cells: rabbit uterus (cytosol of homogenate)
T1 sequence (P06186 1-930): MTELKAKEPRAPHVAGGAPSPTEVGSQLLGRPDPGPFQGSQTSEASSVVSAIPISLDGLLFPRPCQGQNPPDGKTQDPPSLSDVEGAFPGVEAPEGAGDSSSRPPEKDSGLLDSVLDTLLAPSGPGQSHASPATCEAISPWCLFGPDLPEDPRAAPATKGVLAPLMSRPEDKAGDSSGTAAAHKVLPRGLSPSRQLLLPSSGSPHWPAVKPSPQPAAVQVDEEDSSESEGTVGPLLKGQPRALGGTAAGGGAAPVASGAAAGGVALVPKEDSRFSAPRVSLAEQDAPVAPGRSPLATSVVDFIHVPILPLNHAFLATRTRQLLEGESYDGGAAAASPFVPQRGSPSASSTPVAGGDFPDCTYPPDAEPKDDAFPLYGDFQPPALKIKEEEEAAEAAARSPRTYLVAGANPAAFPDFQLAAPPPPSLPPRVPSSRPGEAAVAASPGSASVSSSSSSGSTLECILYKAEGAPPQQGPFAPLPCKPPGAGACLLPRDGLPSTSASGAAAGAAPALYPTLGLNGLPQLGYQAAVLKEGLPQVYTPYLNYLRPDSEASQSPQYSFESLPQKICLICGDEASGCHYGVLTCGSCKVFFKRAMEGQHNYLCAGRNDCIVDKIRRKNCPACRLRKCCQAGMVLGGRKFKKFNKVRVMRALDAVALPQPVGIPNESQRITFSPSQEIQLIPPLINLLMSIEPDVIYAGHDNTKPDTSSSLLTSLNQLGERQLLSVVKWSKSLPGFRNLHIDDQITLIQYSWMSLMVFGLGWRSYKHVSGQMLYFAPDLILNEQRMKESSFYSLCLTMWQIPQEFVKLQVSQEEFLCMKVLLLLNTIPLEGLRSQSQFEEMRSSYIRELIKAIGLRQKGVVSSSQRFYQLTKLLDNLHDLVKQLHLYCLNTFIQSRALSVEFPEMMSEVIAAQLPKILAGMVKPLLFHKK
From the text: (§1) This object is achieved by the provision of the 18-methyl-15β,16β-methylene-19-nor-20-spirox-4-en-3-ones of the general formula I described herein.

[1] = target: T2, mineralocorticoid receptor (Rattus norvegicus, UniProt P22199); test: mineralocorticoid receptor binding, rat kidney homogenate; conditions: for MR [KF]: 3H-aldosterone = 1; for MR [RBA]: 3H-aldosterone = 100
T2 construct: mineralocorticoid receptor from rat kidney homogenate; from tissue; host or cells: rat kidney homogenate
T2 sequence (P22199 1-981): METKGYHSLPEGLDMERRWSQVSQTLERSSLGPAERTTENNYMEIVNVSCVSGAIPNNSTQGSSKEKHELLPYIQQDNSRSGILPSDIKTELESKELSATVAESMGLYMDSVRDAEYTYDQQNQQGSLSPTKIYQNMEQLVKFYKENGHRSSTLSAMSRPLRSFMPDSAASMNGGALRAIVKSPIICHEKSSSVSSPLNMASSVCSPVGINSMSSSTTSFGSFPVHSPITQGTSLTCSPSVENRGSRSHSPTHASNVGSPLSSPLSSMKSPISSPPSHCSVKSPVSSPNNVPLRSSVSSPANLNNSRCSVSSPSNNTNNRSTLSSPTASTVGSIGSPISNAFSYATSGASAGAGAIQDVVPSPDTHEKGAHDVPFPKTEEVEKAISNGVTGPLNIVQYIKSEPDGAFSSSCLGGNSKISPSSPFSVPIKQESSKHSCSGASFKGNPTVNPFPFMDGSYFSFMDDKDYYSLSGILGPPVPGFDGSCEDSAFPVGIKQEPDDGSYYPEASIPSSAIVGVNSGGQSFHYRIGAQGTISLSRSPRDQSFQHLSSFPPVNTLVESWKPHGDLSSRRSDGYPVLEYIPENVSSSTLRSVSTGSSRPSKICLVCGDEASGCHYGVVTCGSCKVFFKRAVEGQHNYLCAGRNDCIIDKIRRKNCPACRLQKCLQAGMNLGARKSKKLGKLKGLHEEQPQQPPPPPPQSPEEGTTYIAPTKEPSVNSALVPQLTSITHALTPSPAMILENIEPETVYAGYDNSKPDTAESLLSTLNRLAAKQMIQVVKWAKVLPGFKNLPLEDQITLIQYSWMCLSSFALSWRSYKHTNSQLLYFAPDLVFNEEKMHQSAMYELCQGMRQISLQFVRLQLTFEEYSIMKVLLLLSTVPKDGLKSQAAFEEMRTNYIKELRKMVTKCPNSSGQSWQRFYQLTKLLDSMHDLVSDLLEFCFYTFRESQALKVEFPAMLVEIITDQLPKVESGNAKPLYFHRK
From the text: as §1

| PR [KF] (progesterone receptor) | PR [RBA] (progesterone receptor) | MR [KF] [1] | MR [RBA] [1] | Structure (SMILES) |
| --- | --- | --- | --- | --- |
| 2.5 | 40 | 0.3 | 333 | C[C@]12CCC(=O)C=C1[C@@H]1C[C@@H]1[C@H]1[C@@H]3[C@@H]4C[C@@H]4[C@@]4(CCC(=O)O4)[C@@]3(C)CC[C@@H]12 [DRSP, 6β,7β-15β,16β-dimethylene-3-oxo-17-pregn-4-ene-21,17β-carbolactone, reference compound] |
| 2.355 | 42 | 0.7 | 143 | CC[C@]12CC[C@H]3[C@H]([C@@H]1[C@@H]1C[C@@H]1[C@@]21CCCO1)[C@H](C1CC1)CC1=CC(=O)CC[C@@H]13 [Example 12, 7α-Cyclopropyl-18-methyl-15β,16β-methylene-19-nor-20-spirox-4-en-3-one] |
| 2.34 | 43 | 0.4 | 250 | CC[C@]12CCC3C4CCC(=O)C=C4C4CC4C3C1[C@@H]1C[C@@H]1[C@@]21CCCO1 (stereo partly drawn) [Example 2, 18-Methyl-6α,7α,15β,16β-dimethylene-19-nor-20-spirox-4-en-3-one] |
| 1.13 | 88 | 0.6 | 167 | CC[C@]12CC[C@H]3[C@H]([C@@H]1[C@@H]1C[C@@H]1[C@@]21CCCO1)[C@H](C)CC1=CC(=O)CC[C@@H]13 [Example 6, 7α,18-Dimethyl-15β,16β-methylene-19-nor-20-spirox-4-en-3-one] |
| 3.01 | 33 | 88 | 1 | CC[C@]12CC[C@H]3[C@@H]([C@H]4C[C@H]4C4=C(Cl)C(=O)CC[C@@H]43)[C@@H]1[C@@H]1C[C@@H]1[C@@]21CCCO1 [Example 18, 4-Chloro-18-methyl-6β,7β,15β,16β-dimethylene-19-nor-20-spirox-4-en-3-one] |
| 3.45 | 29 | 7.8 | 13 | CCC12CCC3C4CCC(=O)C(C)=C4C4CC4C3C1C1CC1C21CCCO1 (stereo not drawn) [Example 17, 4,18-Dimethyl-6β,7β,15β,16β-dimethylene-19-nor-20-spirox-4-en-3-one] |
| 1.08 | 93 | 0.5 | 200 | CCC12CCC3C4CCC(=O)C=C4CC(C)C3C1C1CC1C21CCCO1 (stereo not drawn) [Example 7, 7β,18-Dimethyl-15β,16β-methylene-19-nor-20-spirox-4-en-3-one] |
| 4.295 | 23 | 42 | 2 | CCC1CC2=CC(=O)CCC2C2CCC3(CC)C(C4CC4C34CCCO4)C12 (stereo not drawn) [Example 9, 7β-Ethyl-18-methyl-15β,16β-methylene-19-nor-20-spirox-4-en-3-one] |
| 3.245 | 31 | 7.6 | 13 | CC[C@]12CC[C@H]3[C@@H](CCC4=C(C)C(=O)CC[C@@H]43)[C@@H]1[C@@H]1C[C@@H]1[C@@]21CCCO1 [Example 14, 4,18-Dimethyl-150,16β-methylene-19-nor-20-spirox-4-en-3-one] |
